Measured values from BindingDB's records for patent US20250084074 (Merck Patent, 2025).

Molecular target: T1, Kinesin-like protein KIFC1 (Homo sapiens, UniProt Q9BW19)
T1 sequence (Q9BW19 whole entry): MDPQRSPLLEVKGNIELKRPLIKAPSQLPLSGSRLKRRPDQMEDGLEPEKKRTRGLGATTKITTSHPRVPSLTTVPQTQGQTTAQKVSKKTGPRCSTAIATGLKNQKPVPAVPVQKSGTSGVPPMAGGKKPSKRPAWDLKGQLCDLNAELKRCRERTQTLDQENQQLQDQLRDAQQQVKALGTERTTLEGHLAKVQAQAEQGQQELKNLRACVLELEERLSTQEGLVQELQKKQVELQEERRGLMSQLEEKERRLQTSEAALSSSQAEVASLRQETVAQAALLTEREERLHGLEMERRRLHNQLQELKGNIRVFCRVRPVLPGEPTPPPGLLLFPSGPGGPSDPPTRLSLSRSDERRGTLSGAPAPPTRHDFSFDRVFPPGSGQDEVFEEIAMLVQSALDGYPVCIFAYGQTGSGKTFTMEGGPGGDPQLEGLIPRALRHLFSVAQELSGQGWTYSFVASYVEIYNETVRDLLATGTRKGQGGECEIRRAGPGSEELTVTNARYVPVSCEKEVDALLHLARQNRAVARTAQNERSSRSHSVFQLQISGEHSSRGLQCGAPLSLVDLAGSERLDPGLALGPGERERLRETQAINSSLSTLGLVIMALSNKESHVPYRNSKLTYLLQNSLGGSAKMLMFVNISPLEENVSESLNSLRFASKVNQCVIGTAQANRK
Test: Inhibitory Activities Against HSET-HSET ADP-Glo Assay
Description: Reagents: (+4° C. Storage)Paclitaxel Prod.No.TXD.01 2 mM in DMSO (from Universal Biologicals Cambridge).Tubulin Protein (Pre-formed Microtubules): Bovine Brain Prod.No.MT001-XL Lot.025 10 mg/mL (from Universal Biologicals Cambridge).Reagents: (−80° C. Storage)MT001-XL—Tubulin Protein (Pre-formed Microtubules): Bovine Brain—reconstituted in buffer—15 mM PIPES pH7, 1 mM MgCl2, 20 μM paclitaxel (aliquots at 10 mg/mL) from Universal Biologicals Cambridge.HSET full length protein—Current batch is FL HSET Prep1 (SEQ-000096_002-01_01)Buffer is 20 mM Hepes pH 7.5, 200 mM NaCl, 2 mM TCEP, 5% glycerol (5 μL aliquots at 10.2 μM)Reagents: (−20° C. Storage)ADP-Glo Kinase Assay kit (Promega Prod.No.V9102) 10,000 assay pointsADP-Glo reagent (50 mL), Kinase Detection Reagent (100 mL), and Ultrapure ATP (10 mM) aliquotedBuffer Stocks (filtered and stored at rt for up to 1 month)HEPES acid, 4-(2-Hydroxyethyl)piperazine-1-ethanesulfonic acid MW:238, 238.3 mg/mL=1 M7149 mg/30 mL=1M (pH to 6.8 with 5 M NaOH)PIPES, 1,4-Piperazinediethanesulfonic acid MW: 302.4, 30.24 mg/mL=100 mM; 907.2 mg/30 mL=100 mM (pH to 7 with 5 M NaOH, white cloudy suspension until the pH changes)EGTA, Ethylene glycol-bis(2-aminoethylether)-N,N,N′,N′-tetraacetic acid MW: 380.35, 38.035 mg/mL=100 mM1901.75 mg/50 mL=100 mM (pH to ˜7 with 5 M NaOH)—takes a long time to get into solution and for pH to stabilizeTriton-X-100, MW: 625, 62.5 mg/mL=100 mM (6.25% w/v) (viscous, pipette Triton X-100 with a Gilson using a trimmed pipette tip)ECHO ProtocolCreate an ECHO intermediate plate by adding 24.5 μL DMSO to columns 1 & 2, and 40 μL DMSO to columns 23 & 24 of an ECHO 384PP plateAdd 100 nL of compound/DMSO per well in 384-well Proxi-Plate Plus (white) —Perkin Elmer Cat #6008289 using ECHO dose response protocol 100 nL normal to Assay buffer (Keep on ice): HEPES pH 6.8, MgCl2, EGTA, Triton X-100, DTT, HPLC H2O Microtubule Working Solution (3.2):1 ml PM buffer: PIPES pH 7.0, MgCl2, HPLC H2O, Paclitaxel, mix well, store at rtThen add 26.4 μL of 10 mg/ml microtubules to 724 μL of the above PM buffer to make 750 μL of microtubule working solution @350 μg/mL microtubules (store at rt)Stock HSET enzyme solution (3.1)—keep on iceAdd 1.33 μL 10.2 μM HSET Prepi (SEQ-000096_002-01_01) to 1358 μL assay buffer to make a 10 nM stock for a 5 nM final assay concentration (1/1020 dilution).HSET/Microtubule working solution (3.3)Mix solutions 3.1 and 3.2 in the ratio of 2.5:1 (1214.3 μL 3.1+485.7 μL 3.2) keep at rt for 15 min3.2 is diluted 3.5-fold, 3.1 is diluted 1.4-fold BLANK solution is 357 μL 2XAB+143 μL microtubule working solution 3.2. (Same proportions as HSET/Microtubule working solution (3.3))ATP Working solution is 1 μL 10 mM UltraPure ATP (Promega kit)+999 μL ddH20 gives 10 μM ATP for a 3 μM final assay concentration, stored on ice.Assay procedure in PROXIPLATE 384 PLUS WHITE (Perkin Elmer) plates (Remove 2.4 mL ADP Glo and 4.5 mL Kinase detection reagent from freezer to warm up to rt)Add 3.5 μL BLANK solution to assay plate (column 12)Add 3.5 μL HSET/Microtubule solution (3.3) (columns 1-11 & 13-24)Centrifuge at 1000 rpm for 1 min(pre-incubate enzyme and compound for 10 min)Add 1.5 μL of 10 μM ATP to start reaction gives a final [HSET] of 5 nM, [ATP] of 3 μM and [microtubule] of 70 μg/mL, centrifuge at 1000 rpm for 1 min and incubated at rt for 80 min.After the 80-minute incubation, stop reaction by adding 5 μL ADP-Glo reagent to all wells. Centrifuge for 1 min at 1000 rpm, leave for 40 min at rt.In the dark/away from direct light, add 10 μL Kinase Detection Reagent (KDR) to all wells, Seal plate with a Topseal (Perkin Elmer Cat #6050185) and centrifuge as above, leave for 40 min at rt covered in foil.

| SMILES | IC50 [nM] |
| --- | --- |
| Cc1nc(NC(=O)CCNc2nccc3ccc(C#N)cc23)sc1C(C)(C)C [US20250084074, Example 50] | 199 |
| Cc1nc(NC(=O)CCNc2nccc3ccc(C#N)cc23)sc1C1(C(F)(F)F)CC1 [US20250084074, Example 51] | 1600 |
| Cc1nc(NC(=O)CCNc2nccc3c(F)cc(C#N)cc23)sc1C(C)(C)C [US20250084074, Example 53] | 240 |
| Cc1nnn(-c2ccc3ccnc(NCCC(=O)Nc4nc(C)c(C(C)(C)C)s4)c3c2)n1 [US20250084074, Example 58] | 14 |
| Cc1nc(-c2ccc3ccnc(NCCC(=O)Nc4nc(C)c(C(C)(C)C)s4)c3c2)no1 [US20250084074, Example 75] | 78 |
| Cc1nc(-c2ccc3ccnc(N[C@H]4C[C@@H](C(=O)Nc5nc(C)c(Br)s5)C4)c3c2)no1 [US20250084074, Example 97] | 1150 |
| CCCc1nc(-c2cnc(NC(=O)CCNc3nccc4ccc(-c5noc(C)n5)cc34)s2)no1 [US20250084074, Example 119] | 67 |
| Cc1nc(-c2cccc(C(=O)NCCC(=O)Nc3nc(C)c(C(F)(F)F)s3)c2)no1 [US20250084074, Example 139] | 2160 |
| CCCOC(=O)c1sc(NC(=O)[C@@H](N)CNC(=O)c2cccc(-c3noc(C)n3)c2)nc1C [US20250084074, Example 160] | 54 |
| CCc1nc(NC(=O)[C@@H](N)CNC(=O)c2cccc(-c3noc(C)n3)c2)sc1C(C)(C)C [US20250084074, Example 161] | 2150 |
| CCCOC(=O)c1sc(C(=O)N2CC[C@@H](NC(=O)c3cccc(-c4noc(C)n4)c3)C2)nc1C [US20250084074, Example 241] | 3080 |
| Cc1nc(-c2cccc(C(=O)NCCC(=O)Nc3cnn(C(=O)OC(C)(C)C)c3)c2)no1 [US20250084074, Example 274] | 6400 |
